Values of other authors as cited in US20030073069A1, “Drug rescue by redesign of ADMET/PK properties” (priority 2001, published 2003).

test system: P450; details: induction of a P450

Row | SMILES | No. of currently known drug interactions that involve the compound, Induction
1 | CC(=O)Nc1ccc(O)cc1 [acetaminophen] | 4
2 | C[C@H]1C[C@H]2[C@@H]3CCC4=CC(=O)C=C[C@]4(C)[C@@]3(F)[C@@H](O)C[C@]2(C)[C@@]1(O)C(=O)CO [betamethasone] | 15
3 | O=C1CC2(CCCC2)CC(=O)N1CCCCN1CCN(c2ncccn2)CC1 [buspirone] | 2
4 | C[C@]12CCC(=O)C=C1CC[C@@H]1[C@@H]2C(=O)C[C@@]2(C)[C@H]1CC[C@]2(O)C(=O)CO [cortisone] | 15
5 | CC(C)Nc1cccnc1N1CCN(C(=O)c2cc3cc(NS(C)(=O)=O)ccc3[nH]2)CC1 [delavirdine] | 2
6 | COc1ccc2c(c1)[C@]13CCCC[C@@H]1[C@H](C2)N(C)CC3 [detromethorphan] | 1
7 | C[C@@H]1C[C@H]2[C@@H]3CCC4=CC(=O)C=C[C@]4(C)[C@@]3(F)[C@@H](O)C[C@]2(C)[C@@]1(O)C(=O)CO [dexamethasone] | 14
8 | CC(C)N(CCC(C(N)=O)(c1ccccc1)c1ccccn1)C(C)C (stereo not drawn) [disopyramide] | 3
9 | C[C@H]1c2cccc(O)c2C(=O)C2=C(O)[C@]3(O)C(=O)C(C(N)=O)=C(O)[C@@H](N(C)C)[C@@H]3[C@@H](O)[C@@H]21 [doxycycline] | 3
10 | C[C@]12CCC(=O)C=C1CC[C@H]1[C@@H]3CC[C@](O)(C(=O)CO)[C@@]3(C)C[C@H](O)[C@@]12F [fludrocortisone] | 14
11 | O=C(CCCN1CCC(O)(c2ccc(Cl)cc2)CC1)c1ccc(F)cc1 [haloperidol] | 3
12 | CCC(C)n1ncn(-c2ccc(N3CCN(c4ccc(OCC5COC(Cn6cncn6)(c6ccc(Cl)cc6Cl)O5)cc4)CC3)cc2)c1=O (stereo not drawn) [itraconazole] | 5
13 | CC(=O)N1CCN(c2ccc(OCC3COC(Cn4ccnc4)(c4ccc(Cl)cc4Cl)O3)cc2)CC1 (stereo not drawn) [ketoconazole] | 2
14 | CCC(=O)C(CC(C)N(C)C)(c1ccccc1)c1ccccc1 (stereo not drawn) [methadone] | 8
15 | Clc1ccc(COC(Cn2ccnc2)c2ccc(Cl)cc2Cl)c(Cl)c1 (stereo not drawn) [miconazole] | 2
16 | Cc1c(O)cccc1C(=O)N[C@@H](CSc1ccccc1)[C@H](O)CN1C[C@H]2CCCC[C@H]2C[C@H]1C(=O)NC(C)(C)C [nelfinavir] | 2
17 | CCC1(c2ccccc2)C(=O)NC(=O)NC1=O [phenobarbital] | 1
18 | C=C[C@H]1C[N@@]2CC[C@H]1C[C@H]2[C@H](O)c1ccnc2ccc(OC)cc12 [quinine] | 2
19 | CC(C)c1nc(CN(C)C(=O)N[C@H](C(=O)N[C@@H](Cc2ccccc2)C[C@H](O)[C@H](Cc2ccccc2)NC(=O)OCc2cncs2)C(C)C)cs1 [ritonavir] | 3

test system: P450; details: not given

Row | SMILES | No. of currently known drug interactions that involve the compound, Inhibition
20 | CN1C[C@H](C(=O)N[C@]2(C)O[C@@]3(O)[C@@H]4CCCN4C(=O)[C@H](Cc4ccccc4)N3C2=O)C[C@@H]2c3cccc4[nH]cc(c34)C[C@H]21 [dihydroergotamine] | 7
21 | CN1C[C@H](C(=O)N[C@]2(C)O[C@@]3(O)[C@@H]4CCCN4C(=O)[C@H](Cc4ccccc4)N3C2=O)C=C2c3cccc4[nH]cc(c34)C[C@H]21 [ergotamine] | 7
22 | O=C1CN=C(c2ccccc2)c2cc(Cl)ccc2N1CC1CC1 [prazapam] | 2
23 | CCC(=O)O[C@](Cc1ccccc1)(c1ccccc1)[C@H](C)CN(C)C [propoxyphene] | 1

same assay, conditions: inhibition of a P450

Row | SMILES | No. of currently known drug interactions that involve the compound, Inhibition
24 | CC(=O)CC(c1ccc([N+](=O)[O-])cc1)c1c(O)c2ccccc2oc1=O (stereo not drawn) [acenocoumarol] | 1
25 | CC(=O)c1ccc2c(c1)N(CCCN1CCN(CCO)CC1)c1ccccc1S2 [acetophenazine] | 1
26 | Clc1ccc2c(c1)C(N1CCNCC1)=Nc1ccccc1O2 [amoxapine] | 3
27 | COc1ccc(CCN2CCC(Nc3nc4ccccc4n3Cc3ccc(F)cc3)CC2)cc1 [astemizole] | 10
28 | CC(C)COCC(CN(Cc1ccccc1)c1ccccc1)N1CCCC1 (stereo not drawn) [bepridil] | 1
29 | COCc1c(C(C)C)nc(C(C)C)c(/C=C/[C@@H](O)C[C@@H](O)CC(=O)O)c1-c1ccc(F)cc1 [cerivastatin] | 5
30 | CCN(CC)CCCC(C)Nc1ccnc2cc(Cl)ccc12 (stereo not drawn) [chloroquine] | 1
31 | CN(C)CCCN1c2ccccc2Sc2ccc(Cl)cc21 [chlorpromazine] | 1
32 | COc1cc(N)c(Cl)cc1C(=O)NC1CCN(CCCOc2ccc(F)cc2)CC1OC (stereo not drawn) [cisapride] | 15
33 | COc1ccc(C(=O)Nc2ccccc2CCC2CCCCN2C)cc1 (stereo not drawn) [encainide] | 2
34 | O=C(NCC1CCCCN1)c1cc(OCC(F)(F)F)ccc1OCC(F)(F)F (stereo not drawn) [flecainide] | 2
35 | OCCN1CCN(CCCN2c3ccccc3Sc3ccc(C(F)(F)F)cc32)CC1 [fluphenazine] | 1
36 | CC(C)n1c(/C=C/C(O)CC(O)CC(=O)O)c(-c2ccc(F)cc2)c2ccccc21 (stereo not drawn) [fluvastatin] | 1
37 | CC[C@H](C)C(=O)O[C@H]1C[C@@H](C)C=C2C=C[C@H](C)[C@H](CC[C@@H]3C[C@@H](O)CC(=O)O3)[C@H]21 [lovastatin] | 5
38 | CN1CCCCC1CCN1c2ccccc2Sc2ccc([S+](C)[O-])cc21 (stereo not drawn) [mesoridazine] | 1
39 | COc1ccc2c(c1)N(C[C@H](C)CN(C)C)c1ccccc1S2 [methotrimeprazine] | 1
40 | COc1ccc2[nH]c([S+]([O-])Cc3ncc(C)c(OC)c3C)nc2c1 (stereo not drawn) [omeprazole] | 1
41 | OCCN1CCN(CCCN2c3ccccc3Sc3ccc(Cl)cc32)CC1 [perphenazine] | 1
42 | CCC(c1ccccc1)c1c(O)c2ccccc2oc1=O (stereo not drawn) [phenprocoumon] | 1

Row | SMILES | No. of currently known drug interactions that involve the compound, Inhibition
43 | O=c1[nH]c2ccccc2n1C1CCN(CCCC(c2ccc(F)cc2)c2ccc(F)cc2)CC1 [pimozide] | 3
44 | CN1C(C(=O)Nc2ccccn2)=C(O)c2ccccc2S1(=O)=O [piroxicam] | 1
45 | CC[C@H](C)C(=O)O[C@H]1C[C@H](O)C=C2C=C[C@H](C)[C@H](CC[C@@H](O)C[C@@H](O)CC(=O)O)[C@H]21 [pravastatin] | 1
46 | CN(C)CCCN1c2ccccc2Sc2ccccc21 [promazine] | 1
47 | CC(CN1c2ccccc2Sc2ccccc21)N(C)C (stereo not drawn) [promethazine] | 1
48 | CCC(=O)c1ccc2c(c1)N(CC(C)N(C)C)c1ccccc1S2 (stereo not drawn) [propiomazine] | 1
49 | CNCCCC1c2ccccc2C=Cc2ccccc21 [protriptyline] | 3
50 | CO[C@H]1/C=C/O[C@@]2(C)Oc3c(C)c(O)c4c(c3C2=O)C2=NC3(CCN(CC(C)C)CC3)NC2=C(NC(=O)/C(C)=C\C=C\[C@H](C)[C@H](O)[C@@H](C)[C@@H](O)[C@@H](C)[C@H](OC(C)=O)[C@@H]1C)C4=O [rifabutin] | 6
51 | CO[C@H]1/C=C/O[C@@]2(C)Oc3c(C)c(O)c4c(O)c(c(/C=N/N5CCN(C6CCCC6)CC5)c(O)c4c3C2=O)NC(=O)/C(C)=C\C=C\[C@H](C)[C@H](O)[C@@H](C)[C@@H](O)[C@@H](C)[C@H](OC(C)=O)[C@@H]1C [rifapentine] | 2
52 | CC(C)(C)NC(=O)[C@@H]1C[C@@H]2CCCC[C@@H]2CN1C[C@@H](O)[C@H](Cc1ccccc1)NC(=O)[C@H](CC(N)=O)NC(=O)c1ccc2ccccc2n1 [saquinavir] | 2
53 | CCSc1ccc2c(c1)N(CCCN1CCN(C)CC1)c1ccccc1S2 [thiethylperazine] | 1
54 | CC(C)(C)NC[C@H](O)COc1nsnc1N1CCOCC1 [timolol] | 1
55 | CCCCNC(=O)NS(=O)(=O)c1ccc(C)cc1 [tolbutamide] | 1
56 | CN1CCN(CCCN2c3ccccc3Sc3ccc(C(F)(F)F)cc32)CC1 [trifluoperazine] | 1
57 | CN(C)CCCN1c2ccccc2Sc2ccc(C(F)(F)F)cc21 [triflupromazine] | 1
58 | CCCC(CCC)C(=O)O [valproic acid] | 1
59 | CC[C@]1(O)C[C@@H]2CN(CCc3c([nH]c4ccccc34)[C@@](C(=O)OC)(c3cc4c(cc3OC)N(C)[C@H]3[C@@](O)(C(=O)OC)[C@H](OC(C)=O)[C@]5(CC)C=CCN6CC[C@]43[C@@H]65)C2)C1 [vinblastine] | 4
60 | CC[C@]1(O)C[C@H]2CN(CCc3c([nH]c4ccccc34)[C@@](C(=O)OC)(c3cc4c(cc3OC)N(C=O)[C@H]3[C@@](O)(C(=O)OC)[C@H](OC(C)=O)[C@]5(CC)C=CCN6CC[C@]43[C@@H]65)C2)C1 [vincristine] | 4
